Legend:
[1] = tested on: human lung cancer cell line (NCI-H460); experiment: Sulforhodamine B (SRB) growth inhibition assay; assay type: cell-based; details: for TGI (μM), could not be determined: NCI-H460, maximum dose 100 μM
Protocol: The sulforhodamine B (SRB) protein-staining assay was employed for measurement of in vitro growth inhibition and cytotoxicity (21) The appropriate cell density (cells/well) of NCI-H460 cells (1×10^4) was added in 96-well plates. The cell density used was dependent on the doubling time of the cell line leading to the formation of monolayer. After 24 h incubation, different doses of Compounds 1-3 were added and incubated for further 48 h. This was followed by fixation of cells with ice-cold trichloroacetic acid (50 μl, 50%) at room temperature for 30 min. The plates were carefully washed five times with distilled water, and left for overnight drying in air. Sulforhodamine B dye (100 μl, 0.4% in 1% acetic acid) was introduced in each well and after 30 min residual dye was removed using acetic acid (1%) and air-dried overnight. The bound SRB dye was solubilized in Tris-base solution (100 μl, 10 mM) with gentle shaking on a plate-shaker for 5 min prior to optical density (OD) measurements at 545 nm in a plate reader. Drug concentrations causing growth inhibition (GI50) of 50% cells were calculated from dose response curves and total growth inhibition of Compound 2 was also evaluated.

[2] = tested on: PHA-activated T-cell proliferation; experiment: PHA-activated T-cell proliferation assay (3H-thymidine incorporation); assay type: cell-based, human
Protocol: The T-cell proliferation assay was performed as described by Nielson et al. (19). In this assay, isolated lymphocytes were stimulated by adding the phytohemagglutinin (PHA) in culture. The rate of proliferation and survival was measured by radiolabelled thymidine incorporation method. The lymphocytes were isolated as described by Boyum (20). A 50 μL of cell suspension (10^6/mL) was added to each well of a 96-well round bottom tissue culture plate. 50 μL of PHA was added in each well from the working solution (20 μg/mL) to have final concentration 5 μg/mL. The final volume was adjusted to 200 μL in each well by adding complete RPMI media. The plates were incubated at 37° C. for 72 hours (90% humidity, 5% CO2/air). Methyl-^3H thymidine (Amersham Pharmacia Biotech) 0.5 μCi was added in each well and incubated for further 18 hours. Cells were harvested on a filter mat (Type G-7) using cell harvester (INOTECH IH-280, Switzerland) and the radioactivity (CPM) was measured using a β-scintillation counter (LS 6500, Beckman Coulter, USA). (FIG. 2A)

[3] = tested on: IL-2 production from peripheral blood mononuclear cells; experiment: IL-2 cytokine production by PHA-activated PBMC (ELISA); assay type: cell-based, human
Protocol: IL-2 cytokine was produce from peripheral blood mononuclear cells (PBMC). IL-2 cytokine production by PHA activated cells in the presence or absence of test compounds was studied by ELISA using the human cytokine kit (Diaclone, Besancon Cedex France). Briefly, freshly prepared mononuclear cells (10^5/well) were cultured in 96-well microtiter flat bottom plate in the presence or absence of 5 μg/mL PHA. Four different concentrations (10.33-331.13 μM/mL) of compounds, along with PHA, were used in this assay. The culture plate was incubated at 37° C. for 18 h. Then the supernatant was collected and analyzed for IL-2 cytokine production following kit manufacturer instructions.

whole blood phagocytes = experiment: Luminol-enhanced chemiluminescence oxidative burst assay, whole blood; assay type: cell-based, human
Excerpt: (§1) Heparinized blood was obtained by vein puncture aseptically from healthy volunteers (25-38 years age). The buffy coat containing PMNs was collected by dextran sedimentation and the cells were isolated after the LSM density gradient centrifugation from the tube base. Cells were washed twice and suspended in Hank's Balance Salt Solution (Ca^2+ and Mg^2+ free) (HBSS^−−), pH 7.4. Neutrophils were purified from RBCs contamination using hypotonic solution. Cells were adjusted to their required concentration using Hank's Balance Salt Solution containing Ca^2+ and Mg^2+ (HBSS++)
(§2) Luminol-enhanced chemiluminescence assay was performed as described by Helfand et al. (17), and Haklar et al. (18) with some modifications. Briefly, 25 μL diluted whole blood (1:200 dilution in sterile HBSS^++) or 25 μL of PMNs (1×10^6) cells were incubated with 25 μL of serially diluted compounds with concentration ranges between 3.2-50 mg/mL. Tests were performed in white 96-well plates, which were incubated at 37° C. for 30 minutes in the thermostated chamber of the luminometer. Opsonized zymosan-A, 25 μL, followed by 25 μL luminol (7×10^−5M) along with HBSS^++ was added to each well to obtain a 100 μL volume/well. […] Chemiluminescence peaks were recorded with the Luminometer. Results were monitored as chemiluminescence relative light units (RLU) with peak and total integral values.

[4] = tested on: isolated polymorphoneutrophils (PMNs); experiment: Luminol-enhanced chemiluminescence oxidative burst assay, isolated PMNs; assay type: cell-based, human
Excerpt: as §1, §2

C[C@]12C=CC(=O)C=C1CC[C@@H]1[C@@H]2CC[C@@]2(C)[C@H]1CC[C@]2(C)O [Compound 1, dianabol, reference compound]
anticancer activity against NCI-H460 [1]: showed anticancer activity
TGI (μM), could not be determined [1]: ND (Values could not be determined indicates <50% inhibition of cell growth at maximum dose (100 μM) tested.)
effect on T-cell proliferation [2]: did not show any significant effect
effect on IL-2 production [3]: did not show any significant effect

C[C@]12C=CC(=O)C[C@@H]1CC[C@@H]1[C@@H]2CC[C@@]2(C)[C@H]1CC[C@]2(C)O [Compound 2, 17β-hydroxy-17α-methyl-5α-androst-1-en-3-one]
anticancer activity against NCI-H460 [1]: showed anticancer activity
effect on ROS production, whole blood phagocytes (whole blood phagocytes): did not result in any significant effect
effect on ROS production, isolated neutrophils [4]: did not result in any significant effect

C[C@]12CCC(=O)C[C@@H]1CC[C@@H]1[C@@H]2CC[C@@]2(C)[C@H]1CC[C@]2(C)O [Compound 3, 17β-hydroxy-17α-methyl-5α-androstan-3-one]
anticancer activity against NCI-H460 [1]: non-active
growth inhibition of cancer cells at 100 μM ([1]; 100 μM): not able to inhibit considerable growth
TGI (μM), could not be determined [1]: ND (Values could not be determined indicates <50% inhibition of cell growth at maximum dose (100 μM) tested.)
effect on ROS production, whole blood phagocytes (whole blood phagocytes): did not result in any significant effect
effect on T-cell proliferation [2]: moderate inhibitory activity
effect on IL-2 production [3]: moderate inhibitory activity
effect on ROS production, isolated neutrophils [4]: did not result in any significant effect
